Data on six compounds can be found in patent US9751896B1, “Asymmetric 7-N isatin dimer Schiff base compounds with antitumor activities and a method of preparing the same” (SHAANXI UNIVERSITY OF SCIENCE AND TECHNOLOGY, priority 2016, dated 2017).

Usually melting point stands for the temperature, or range, at which the solid turns liquid.

Each structure is given as a SMILES string. Some results are limits rather than exact numbers.

Data set [1] relates to human gastric cancer cells (SGC-7901). Briefly: Tumor cell proliferation inhibition test (MTT), SGC-7901. To be noted: SGC-7901 cells, 48 hours treatment, read-out: Half Inhibitory Concentration IC50 SGC-7901. Type of data set: cell-based. Here is the method:
(§1) The compounds of the present invention were subjected to tumor cell proliferation inhibition test, and conventional MTT method was used.
(§2) Cell lines: human hepatoma cells (HepG2), human lung cancer cells (A-549), human gastric cancer cells (SGC-7901). The culture medium was DMEM+15% NBS+double antibody.
(§3) Sample solution preparation: after dissolving with DMSO (Merck), PBS (−) was added to obtain 100 μmol/L solution or homogeneous suspension. The solution was diluted with PBS (−) in DMSO to a final concentration of 0.1, 1, 10, 20, 40, 60, 80, 100 μmol/L.
(§4) Antitumor drug cytarabine (Ara-C) was used as control solution, prepared under the same condition.
(§5) Cell culture: adherent growth Tumor cells were cultured in 1640 medium containing 10% inactivated neonatal bovine serum and penicillin, streptomycin (1 million U/L), placed in carbon dioxide incubator at 37° C., 5% CO2, and saturated humidity. Cells were treated serially passaged 2-3 times. The first culture was washed with PBS 2 times, and digested with trypsin. Fresh culture medium was added evenly, cells were adjusted to a appropriate concentration and transferred into a new culture flask. Cell in an exponential phase were chosen for the tests.
(§6) MTT Assay for Cell Viability and IC50 Determination:
(§7) Experimental Principle: Living cells mitochondria in the dehydrogenase can reduce yellow MTT to water-insoluble blue-violet product MT (MTT formazan), deposited in the cells. The amount of production is proportional to the number of living cells. […] DMSO can dissolve blue violet crystals, and the color depth is proportional to the amount contained, so the absorbance measured by the microplate reader can reflect the cell viability.
(§8) Methods: The exponential phase cells were digested and counted and seeded in 96-well plates at a density of 2×10^4/mL at 100 μl per well. After 24 hours of incubation, the cells to be tested were treated with 0.1, 1, 10, 20, 40, 60, 80, 100 μmol/L of the compounds. Each experimental group had 5 wells in each concentration, and the culture medium containing 0.4% DMSO was used as control. After 48 hours, the supernatant was discarded, and 100 μl of MTT ((2-(4,5-dimethyl-2-thiazolyl)-3,5-diphenyl-2H-[…]) (1 mg/mL) was added to each well. After another 4 hours, the supernatant was discarded, and 100 μl of DMSO was added to each well. After mixing, the absorbance was measured at 570 nm using a microplate reader. An IC50 calculation software was used to determine the half inhibitory concentration (IC50).

In data set [2] the test system is human lung cancer cells (A-549). Briefly: Tumor cell proliferation inhibition test (MTT), A-549. The data set is classed as cell-based. The following applies: A549 cells, 48 hours treatment, read-out: Half Inhibitory Concentration IC50 A549. Here is the method:
as §1, §2, §3, §4, §5, §6, §7, §8

For data set [3], the system named is human hepatoma cells (HepG2). Nature of the data set: Tumor cell proliferation inhibition test (MTT), HepG2. To be noted: 48 hours treatment, read-out: Half Inhibitory Concentration IC50 HepG2. Type of data set: cell-based. Here is the method:
as §1, §2, §3, §4, §5, §6, §7, §8

In the case of `Nc1ccn([C@@H]2O[C@H](CO)[C@@H](O)[C@@H]2O)c(=O)n1` [Ara-C, cytarabine, reference compound], the IC50 in data set [1] was determined as 18.2 ± 0.39 µM; in data set [2] it was 14.9 ± 0.64 µM; in data set [3], 18.3 ± 0.28 µM.
`Cc1cnc2c(c1)/C(=N/N=C1\C(=O)Nc3ncc(Cl)cc31)C(=O)N2` [Compound 1] returned a melting point of 174.5 °C. Also, the IC50 in data set [1] was 42.3 ± 1.89 µM. In data set [2], the IC50 is 55.8 ± 2.67 µM. In addition, the IC50 in data set [3] is > 100 µM.
As for `CN1C(=O)/C(=N\N=C2/C(=O)N(Cc3ccccc3)c3ncccc32)c2cccnc21` [Compound 4], the melting point came out at 214.3 °C. The IC50 in data set [1] is > 100 µM. Moreover, in data set [2], the IC50 was 85.8 ± 2.96 µM. Further, the IC50 in data set [3] was > 100 µM.
With `CCN1C(=O)/C(=N\N=C2/C(=O)N(C)c3ncccc32)c2cccnc21` [Compound 5], the melting point was 195.6 °C. In data set [1], the IC50 came to 46.9 ± 0.85 µM. Further, the IC50 in data set [3] came out at 28.7 ± 0.4 µM.
Turning to `CCN1C(=O)/C(=N\N=C2/C(=O)N(C(C)C)c3ncccc32)c2cccnc21` [Compound 6], the melting point is 191.9 °C. In data set [1], the IC50 is > 100 µM. In addition, the IC50 in data set [2] is > 100 µM. Moreover, the IC50 in data set [3] is > 100 µM.
`CC(C)N1C(=O)/C(=N\N=C2/C(=O)N(C)c3ncccc32)c2cccnc21` [Compound 7] had a melting point of 182.5 °C. Besides, in data set [1], the IC50 was > 100 µM. In addition, the IC50 in data set [2] is > 100 µM. The IC50 in data set [3] worked out at 98.6 ± 3.23 µM.
